According to the NIST ThermoML archive (doi:10.1016/j.tca.2007.07.015):

Assay: excess molar enthalpy (molar enthalpy of mixing); xn = mol fraction of the nth substance listed
Conditions: 973 K, Liquid, Calvet calorimetry

[Pb] [lead] + [Au]
101 kPa
Conditions | excess molar enthalpy [kcal/mol]
x2 = 0.0446 | -0.0574
x2 = 0.0465 | -0.0433
x2 = 0.0726 | -0.0915
x2 = 0.0864 | -0.111
x2 = 0.0922 | -0.0825
x2 = 0.1272 | -0.151
x2 = 0.1358 | -0.127
x2 = 0.1368 | -0.154
x2 = 0.1653 | -0.174
x2 = 0.1768 | -0.159
x2 = 0.1938 | -0.189
x2 = 0.2 | -0.212
x2 = 0.2003 | -0.202
x2 = 0.2148 | -0.187
x2 = 0.2333 | -0.209
x2 = 0.2482 | -0.212
x2 = 0.2506 | -0.204
x2 = 0.2652 | -0.228
x2 = 0.2841 | -0.22
x2 = 0.2962 | -0.24
x2 = 0.2966 | -0.228
x2 = 0.3161 | -0.222
x2 = 0.3226 | -0.244
x2 = 0.3436 | -0.235
x2 = 0.3455 | -0.232
x2 = 0.3733 | -0.235
x2 = 0.3862 | -0.239
x2 = 0.4 | -0.257
x2 = 0.402 | -0.241
x2 = 0.4248 | -0.241
x2 = 0.4294 | -0.248
x2 = 0.4416 | -0.249

[Pb] [lead] + [Ag]
Conditions | excess molar enthalpy [kcal/mol]
101.3 kPa, x2 = 0.2 | 0.555
